Assay results: patent publication US8592421B2, “Cyclic bioisosters of purine system derivatives and a pharmaceutical composition based thereon” (priority 2003, dated 2013)

What was measured:
[1] = tested on: synthase of nitrogen oxide (NOC); test: Morphine abstinence model: activity of synthase of nitrogen oxide (NOC), radiometric [3H]L-citrulline method; type: in vivo, rats Wistar; conditions: 20.0 mg/kg intramuscularly; for Activity of NOC: Mesencephalon: control 2.18 ± 0.09; for Activity of NOC: Hypothalamus: control 5.37 ± 0.20
[2] = Electrochemical activity: polarographic reduction on mercury dripping electrode; type: physicochemical; conditions: for number of electrons participating in the reduction reaction: calculated with Geirovsky-Ilkovich equation; for i: 2.0% sodium chloride background, 9·10^−4 M; for i / −E1/2: 37° C., forward trace, average for the group of compounds; for −E1/2: vs SCE; for half-wave potential more positive at reverse stroke compared to forward stroke: polarograms of reverse stroke
plasma hemostasis = test: Autocoagulation test (coagulating activity A) after intravenous administration; type: in vivo, rabbit; conditions: for effect on the coagulation activity according to the autocoagulation test: doses 15.0, 30.0, 60.0 mg/kg
Experimental: The investigations were performed on 72 rabbits of the “Chinchilla” breed with a mass of 2.5±0.3 kg, who were administered which solutions of compounds 2, 15, 21, 37 in doses of 15, 30 and 60 mg/kg intravenously. The experiments included the thrombin-test (series No. 7300) and the coagulability-test (series No. 5000) purchased from the scientific-and-production association (SPA) “Renam”, thromboplastin (series No. 240600) and calcium chloride purchased from the SPA “MedioLab”
The static parameters of the blood and plasma coagulation (partial activated thromboplastin time, thrombin time, maximum coagulation activity (test for auto coagulation) were determined using the Behnk Electronic coagulometer (Germany). The operating principle of this instrument is based on the fact that the formed blood clot breaks the contacts of the pulse counter in the flask-pin circuit, said pin permanently oscillating in a vertical plane. The moment of formation of the clot is registered by stopping the stop watch hand.
The measurements were effected at a constant temperature of 37° C. maintained by a temperature control unit.
Compounds 2, 15, 21, 37 according to the invention at a concentration of 15, 30 and 60 mg/kg were intravenously administered to the above experimental animals and their blood samples were taken off 15, 30, 60 and 120 minutes after the administration.
Added to 0.2 ml of plasma obtained by centrifuging citrate blood at 1500 rev/min within 10 minutes was a glycosylate-calcium mixture (2.0 ml 0.222% CaCl2+0.1 ml of investigated citrate blood) 4, 6, 8, 10 minutes after the preparation of this mixture and the time of coagulation in the sample was determined.
The obtained results in seconds were translated in factors of coagulating activity A in percent, which specify the state of both the coagulating and anticoagulating parts of the blood coagulating system. The results of the experiments are given in Table 7. • The effect of the compounds according to the invention on the values of coagulating activity A by the data of autocoagulation test with intravenous administration of the compounds to the rabbits

[3] = tested on: adenosine-sensitive receptors of erythrocytes; test: Interaction with adenosine-sensitive receptors of erythrocytes (chemiluminescence of bound compound, adenosine competition); type: binding, mice of line BALB/c; conditions: incubation at 37° C. vs 4° C., 10^−7 to 10^−5 M
Experimental: The interaction of compounds 2, 15, 21, 37 according to the invention with adenosine-sensitive receptors of erythrocytes of female mice of line BALB/c of an age of 8-12 months was investigated.
The dependence of the chemiluminescence intensity of the compounds according to the invention in an alkaline solution of 0.1N NaOH was determined in the presence of hydrogen peroxide being an initiator of chemiluminescence. The chemiluminescence was studied using the <<LKB>> chemiluminometer.
The erythrocytes of peripheral blood of the mice at first were washed three times by a normal physiological solution with centrifuging and then diluted in the Henks solution without glucose by 10 volumes of distilled water immediately used in the experiment.
At the first stage of the experiments the washed erythrocytes were incubated at a temperature of 37° C. or at 4° C. with solutions of the compounds according to the invention at a concentration of 10^−7 to 10^−5 M for 5-30 minutes, then washed by a normal physiological solution with repeated centrifuging in the cold. The obtained suspension of erythrocytes with the bound compounds according to the invention was placed in 0.1N solution of NaOH with addition of hydrogen peroxide at a final concentration of 10^−7 M. The chemiluminescence intensity was measured. A suspension of erythrocytes without compounds according to the invention was used as a control medium.
At the second stage of the experiments the washed erythrocytes were incubated at a temperature of 37° C. with solutions of the compounds according to the invention at a concentration of 10^−11 to 10^−8 M during 5-30 minutes, then washed twice with a normal physiological solution by centrifuging in the cold, the obtained suspension was mixed with an adenosine solution at a concentration of 10^−6 to 10^−4 and incubated for 15 minutes, then washed twice with a normal physiological solution with centrifuging in the cold. The obtained suspension of erythrocytes with the compounds according to the invention was placed in 0.1N solution of NaOH with addition of hydrogen peroxide in the final concentration of 10^−7 M. The chemiluminescence intensity was measured.

[4] = 15.0 mg/kg intravenously, after 15 minutes, control 85.6
[5] = 15.0 mg/kg intravenously, after 30 minutes, control 85.6
[6] = 15.0 mg/kg intravenously, after 60 minutes, control 85.6
[7] = 15.0 mg/kg intravenously, after 120 minutes, control 85.6
[8] = 30.0 mg/kg intravenously, after 15 minutes, control 70.0
[9] = 30.0 mg/kg intravenously, after 30 minutes, control 70.0
[10] = 30.0 mg/kg intravenously, after 60 minutes, control 70.0
[11] = 30.0 mg/kg intravenously, after 120 minutes, control 70.0
[12] = 60.0 mg/kg intravenously, after 15 minutes, control 65.9
[13] = 60.0 mg/kg intravenously, after 30 minutes, control 65.9
[14] = 60.0 mg/kg intravenously, after 60 minutes, control 65.9
[15] = 60.0 mg/kg intravenously, after 120 minutes, control 65.9

Row | SMILES | Activity of NOC: Mesencephalon ([1]; Control + Compound) | Activity of NOC: Hypothalamus ([1]; Control + Compound) | Activity of NOC: Mesencephalon ([1]; Control + Morphine + compound) | Activity of NOC: Hypothalamus ([1]; Control + Morphine + compound) | number of electrons participating in the reduction reaction [2] | i ([2]; pH 7.0) | −E1/2 ([2]; pH 7.0) | i ([2]; pH 7.2) | −E1/2 ([2]; pH 7.2) | i ([2]; pH 7.4) | −E1/2 ([2]; pH 7.4) | i ([2]; pH 7.6) | −E1/2 ([2]; pH 7.6) | coagulating activity A (autocoagulation test) (plasma hemostasis; [4]) | coagulating activity A (autocoagulation test) (plasma hemostasis; [5]) | coagulating activity A (autocoagulation test) (plasma hemostasis; [6]) | coagulating activity A (autocoagulation test) (plasma hemostasis; [7]) | coagulating activity A (autocoagulation test) (plasma hemostasis; [8]) | coagulating activity A (autocoagulation test) (plasma hemostasis; [9]) | coagulating activity A (autocoagulation test) (plasma hemostasis; [10]) | further results
1 | O=c1[nH][nH]c(=O)c2ncccc12.[Li] [Compound 6, lithium salt of pyrido[2,3-d]-6H-pyridazine-5,8-dione] | 2.84 ± 0.31 pmol/min/mg of protein | 5.93 ± 0.27 pmol/min/mg of protein | 1.99 ± 0.31 pmol/min/mg of protein | 5.24 ± 0.24 pmol/min/mg of protein | – | – | – | – | – | – | – | – | – | – | – | – | – | – | – | – | –
2 | O=c1[nH]n([C@@H]2O[C@H](CO)[C@@H](O)[C@H]2O)c(=O)c2nc(O)cnc12.[Na].[Na] [Compound 23, disodium salt of 2-hydroxy-7-(β-D-ribofuranosile)pyrazine[2,3—Cl]-6H-pyridazine-5,8-dione] | – | – | – | – | 3.72 | 0.32 ± 0.03 mkA | 0.16 ± 0.02 V | 0.33 ± 0.04 mkA | 0.19 ± 0.02 V | 0.34 ± 0.03 mkA | 0.175 ± 0.01 V | 0.34 ± 0.02 mkA | 0.16 ± 0.015 V | – | – | – | – | – | – | – | half-wave potential more positive at reverse stroke compared to forward stroke [2]: 20.0 mV
3 | Nc1ccnc2c(=O)n([C@@H]3O[C@H](CO)[C@@H](O)[C@H]3O)[nH]c(=O)c12 [Compound 2, 4-amino-7-(β-D-ribofuranosile)pyrido[2,3-d]-6H-pyridazine-5,8-dione] | – | – | – | – | – | – | – | – | – | – | – | – | – | 80.2% | 100.0% | 87.4% | 98.0% | 98.4% | 71.2% | 104.2% | coagulating activity A (autocoagulation test) (plasma hemostasis; [11]): 70.9%; coagulating activity A (autocoagulation test) (plasma hemostasis; [12]): 72.3%; coagulating activity A (autocoagulation test) (plasma hemostasis; [13]): 60.8%; coagulating activity A (autocoagulation test) (plasma hemostasis; [14]): 62.5%; coagulating activity A (autocoagulation test) (plasma hemostasis; [15]): 65.7%; effect on the coagulation activity according to the autocoagulation test (plasma hemostasis): have no effect on the coagulation activity; dependence of the bond with erythrocytes on temperature [3]: does not depend on the temperature
4 | O=c1[nH][nH]c(=O)c2nccnc12.[Li] [Compound 25, lithium salt of pyrazine[2,3-d]-6H-pyridazine-5,8-dione] | 2.65 ± 0.43 pmol/min/mg of protein | 5.88 ± 0.27 pmol/min/mg of protein | 1.97 ± 0.27 pmol/min/mg of protein | 5.23 ± 0.27 pmol/min/mg of protein | 3.72 | 0.32 ± 0.03 mkA | 0.16 ± 0.02 V | 0.33 ± 0.04 mkA | 0.19 ± 0.02 V | 0.34 ± 0.03 mkA | 0.175 ± 0.01 V | 0.34 ± 0.02 mkA | 0.16 ± 0.015 V | – | – | – | – | – | – | – | half-wave potential more positive at reverse stroke compared to forward stroke [2]: 20.0 mV
5 | Nc1cnc2c(=O)n([C@@H]3O[C@H](CO)[C@@H](O)[C@H]3O)[nH]c(=O)c2n1.[Na] [Compound 21, sodium salt of 3-amino-7-(β-D-ribofuranosile)pyrazine[2,3-d]-6H-pyridazine-5,8-dione] | – | – | – | – | – | – | – | – | – | – | – | – | – | 81.4% | 101.3% | 86.5% | 97.4% | 97.2% | 69.1% | 103.7% | coagulating activity A (autocoagulation test) (plasma hemostasis; [11]): 71.0%; coagulating activity A (autocoagulation test) (plasma hemostasis; [12]): 71.9%; coagulating activity A (autocoagulation test) (plasma hemostasis; [13]): 62.1%; coagulating activity A (autocoagulation test) (plasma hemostasis; [14]): 63.7%; coagulating activity A (autocoagulation test) (plasma hemostasis; [15]): 66.2%; effect on the coagulation activity according to the autocoagulation test (plasma hemostasis): have no effect on the coagulation activity; dependence of the bond with erythrocytes on temperature [3]: does not depend on the temperature
6 | Nc1ncc2c(=O)[nH][nH]c(=O)c2n1 [Compound 36, 2-amino-pyrimido[4,5-d]-6H-pyridazine-5,8-dione] | – | – | – | – | 3.5 | 0.30 ± 0.05 mkA | 0.08 ± 0.02 V | 0.26 ± 0.02 mkA | 0.085 ± 0.015 V | 0.30 ± 0.03 mkA | 0.085 ± 0.02 V | 0.30 ± 0.02 mkA | 0.09 ± 0.02 V | – | – | – | – | – | – | – | –
7 | O=c1[nH][nH]c(=O)c2c(Br)ncnc12.[K] [Compound 37, potassium salt of 4-bromine-pyrimido[4,5-D]-6H-pyridazine-5,8-dione] | 2.62 ± 0.27 pmol/min/mg of protein | 5.61 ± 0.22 pmol/min/mg of protein | 1.85 ± 0.30 pmol/min/mg of protein | 5.59 ± 0.22 pmol/min/mg of protein | – | – | – | – | – | – | – | – | – | 82.1% | 102.8% | 88.7% | 100.6% | 99.8% | 68.3% | 105.8% | coagulating activity A (autocoagulation test) (plasma hemostasis; [11]): 70.4%; coagulating activity A (autocoagulation test) (plasma hemostasis; [12]): 74.3%; coagulating activity A (autocoagulation test) (plasma hemostasis; [13]): 63.0%; coagulating activity A (autocoagulation test) (plasma hemostasis; [14]): 64.2%; coagulating activity A (autocoagulation test) (plasma hemostasis; [15]): 66.3%; effect on the coagulation activity according to the autocoagulation test (plasma hemostasis): have no effect on the coagulation activity; dependence of the bond with erythrocytes on temperature [3]: does not depend on the temperature
